Source: article PMC5487681, “Identification of Antifungal H^+-ATPase Inhibitors with Effect on Plasma Membrane Potential” (Antimicrobial Agents and Chemotherapy, 2017)
Residues, ends and D or L forms follow the SMILES beside them.

Key:
S. cerevisiae cells = experiment: Membrane potential and integrity assay, DiBAC4(3)/PI image cytometry; type: cell-based, Saccharomyces cerevisiae; conditions: for PI signal (membrane integrity), in words: compound 14 after 5 min, BM2 within 5 min; for PI signal (membrane integrity), in words / DiBAC4(3) signal (membrane depolarization), in words: compound 17 15 µM, 30 min (Fig. S1); for DiBAC4(3) signal (membrane depolarization), in words: compound 14 after 5 min of exposure
Procedure: Cells were transferred from frozen stocks to 3 ml of YPD medium and grown overnight at 30°C and 150 rpm. The culture was diluted to an OD600 of 0.15 and grown for 3 to 4 h at 30°C and 150 rpm to an OD600 of 0.5 to 0.7. The cells were pelleted by centrifugation at 2,000 × g for 2 min and washed in buffer A (100 mM MOPS and 1 mM KCl adjusted to pH 7.0 with Trizma base). The washing procedure was repeated, and the cells were resuspended in buffer A to an OD600 of 0.2. Fifty microliters of buffer A containing 3.3 μg/ml propidium iodide (PI; catalog number P1304MP; Thermo Fisher Scientific) and 1 μg/ml DiBAC4(3) (catalog number D8189; Sigma-Aldrich) was mixed with 50 μl the S. cerevisiae cell suspension in buffer A and transferred to a 96-well plate with 1 μl of inhibitor in DMSO, and the components were mixed.
Approximately 30 μl sample was transferred to an A2 glass slide (ChemoMetec, Allerod, Denmark), and the slide was incubated at 30°C before the cells were counted on a NucleoCounter NC-3000 cytometer (ChemoMetec). Five thousand cells were counted per experiment with an exposure time of 1,000 ms. A dark field was used as the masking channel to select the yeast cells. The DiBAC4(3) channel (excitation, 530 nm; emission, 675/75 nm) and the PI channel (excitation, 630 nm; emission, 740/60 nm) were used to measure the membrane potential and membrane integrity, respectively. To account for the fluorescent spillover from the PI channel to the DiBAC4(3) channel, 15% compensation was applied. In all experiments, 1.9% compensation was used to compensate for the DiBAC4(3)-to-PI spillover. The results were analyzed using NucleoView software (ChemoMetec). Only cells with a pixel size of 10 to 40 were included in the analysis, thus avoiding analysis of noncell artifacts. Carbonyl cyanide m-chlorophenylhydrazone (CCCP) was used as a positive control for decreased membrane potential, and lysis buffer was used to validate lost membrane integrity.

C. albicans = conditions: read-out: IC50 for C. albicans, previously reported value; cited from earlier work
S. cerevisiae Pma1 = S. cerevisiae Pma1 (Saccharomyces cerevisiae, UniProt P05030); conditions: read-out: IC50 Pma1, ATP hydrolysis assay; cited from earlier work
Sequence of S. cerevisiae Pma1 (P05030 whole entry): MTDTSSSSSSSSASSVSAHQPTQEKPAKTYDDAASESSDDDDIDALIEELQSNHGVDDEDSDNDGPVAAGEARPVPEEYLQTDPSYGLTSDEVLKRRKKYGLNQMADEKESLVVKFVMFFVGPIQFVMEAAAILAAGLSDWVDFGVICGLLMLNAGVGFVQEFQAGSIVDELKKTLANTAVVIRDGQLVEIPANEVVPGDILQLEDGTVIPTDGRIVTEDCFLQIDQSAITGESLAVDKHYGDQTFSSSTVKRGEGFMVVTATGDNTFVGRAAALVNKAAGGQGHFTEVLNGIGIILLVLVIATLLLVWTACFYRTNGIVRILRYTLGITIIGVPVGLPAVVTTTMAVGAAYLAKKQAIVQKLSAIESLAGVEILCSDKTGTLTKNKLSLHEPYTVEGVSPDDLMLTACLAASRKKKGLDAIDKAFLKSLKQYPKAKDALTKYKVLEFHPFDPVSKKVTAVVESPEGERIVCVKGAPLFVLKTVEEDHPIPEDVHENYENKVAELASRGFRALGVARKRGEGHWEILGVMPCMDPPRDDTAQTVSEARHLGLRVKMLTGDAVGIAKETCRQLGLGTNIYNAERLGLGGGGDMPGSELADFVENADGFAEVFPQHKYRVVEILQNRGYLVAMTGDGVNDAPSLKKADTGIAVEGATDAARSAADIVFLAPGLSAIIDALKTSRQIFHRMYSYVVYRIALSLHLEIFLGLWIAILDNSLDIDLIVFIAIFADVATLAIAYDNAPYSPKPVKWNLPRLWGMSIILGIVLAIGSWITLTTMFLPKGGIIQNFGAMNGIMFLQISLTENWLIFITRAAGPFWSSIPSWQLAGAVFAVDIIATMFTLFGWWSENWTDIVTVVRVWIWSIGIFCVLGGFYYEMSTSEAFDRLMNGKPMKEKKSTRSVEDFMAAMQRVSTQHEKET

[1] = 30 min of exposure, 15 μM (Fig. 4C)

With CCc1nc2sc3c(NCCCN(C)C)ncnc3c2c2c1CCCC2 [Compound 17] the “PI signal (membrane integrity), in words” value (S. cerevisiae cells) was “not significantly increased” and the “DiBAC4(3) signal (membrane depolarization), in words” value (S. cerevisiae cells) was “did not increase”.

In the case of CCCCc1nc2sc3c(NCCCN(C)C)ncnc3c2c2c1CCCC2 [Compound 14], the “Cells DiBAC4(3) positive and PI negative” value (S. cerevisiae cells; [1]) is reported as 44%, the “Cells PI positive but DiBAC4(3) negative” value (S. cerevisiae cells; [1]) is reported as 0.7% and the “Cells both PI and DiBAC4(3) negative” value (S. cerevisiae cells; [1]) is reported as 16%. The “Cells both PI and DiBAC4(3) positive” value (S. cerevisiae cells; [1]) was 39%, the “PI signal (membrane integrity), in words” value (S. cerevisiae cells) was “minimal increase” and the “DiBAC4(3) signal (membrane depolarization), in words” value (S. cerevisiae cells) was “elevated”.

In the case of O=c1c2ccccc2[se]n1-c1ccccc1 [Ebselen, reference compound], the IC50 (C. albicans) is listed as 14 µM.

In the case of N=C(N)NCCC[C@@H](N)C(=O)N[C@H](CCCNC(=N)N)C(=O)N[C@H](CCCNC(=N)N)C(=O)N[C@H](Cc1ccccc1)C(=O)N[C@H](Cc1c[nH]c2ccccc12)C(=O)N[C@H](Cc1c[nH]c2ccccc12)C(=O)N[C@H](Cc1ccccc1)C(=O)N[C@H](CCCNC(=N)N)C(=O)N[C@H](CCCNC(=N)N)C(=O)N[C@H](CCCNC(=N)N)C(N)=O [BM2, reference compound] (HELM PEPTIDE1{[dR].[dR].[dR].[dF].[dW].[dW].[dF].[dR].[dR].[dR].[am]}$$$$V2.0), the IC50 (S. cerevisiae Pma1) is listed as 0.5 µM.
